Test results as given in patent publication US20240374626A1, “METHODS OF ENHANCING MILK PRODUCTION IN LACTATING MAMMALIAN SUBJECTS” (priority 2023, published 2024).

Columns and labels:
[1] = system: γH2AX; experiment: Contralateral intraductal injection: γH2AX IHC in CK8+ luminal cells of MG; assay type: in vivo, mouse; conditions: doxorubicin IDI (1.5 μg per gland) at PD12.5 vs contralateral DMSO vehicle, 24 h post-injection (PD13.5)
Procedure: Nulliparous analysis was performed using adult (10-12-week-old) female mice. For timed pregnancies and lactation analysis, CD-1 pregnant adult females were obtained from Charles Rivers. Embryos were examined at the time of mammary gland harvesting to confirm pregnancy state. […] Plugged mice were considered to be PD0.5 on the day of the observed plug. All females used in this study were age matched.
Mice were anesthetized with isoflurane (VetOne, 501017) Prior to intraductal injections, hair was removed from around the nipples using Nair hair remover. Injections into the duct of the nipple were performed with 33 G needles (Hamilton, 7803-05) and a volume of 40 μl per gland. Right inguinal, abdominal and thoracic glands were injected with doxorubicin (1.5 μg per gland, Cayman Chemical, 15007), nucleosides (40 μl per gland, Millipore-Sigma, ES-008-D) or Mk-1775 (50 μg per gland, Cayman Chemical, 21266), and left glands were injected with PBS or DMSO (Thermo Scientific, BP231) diluted in PBS.
Mammary gland tissue was fixed in 10% neutral buffered formalin (EMD Millipore, MR0458682) at 4° C. overnight. Fixation was quenched using 0.2% glycine (Fisher Scientific, BP381) in PBS, for 1 h at room temperature. […] Integrated density of nuclear γH2AX and pATR was quantified using ImageJ.

[2] = system: HC11 cells; experiment: FACS DNA content analysis of HC11 cells during lactogenic differentiation; assay type: cell-based, mouse; conditions: HC11, doxorubicin 50 nM
Procedure: The HC11 cell line was obtained from American Type Culture Collection (ATCC) and routinely checked for mycoplasma (Mycoplasma PCR kit, ABM, G238). Undifferentiated HC11 cells were cultured in growing medium (RPMI-1640; Thermo Fisher Scientific, 72400047), supplemented with 10% FBS, 5 μg/ml insulin (Millipore-Sigma, 16634), 10 ng/ml epidermal growth factor (EGF; Preprotech, AF-100-15) and 1× AntiAnti (Thermo Fisher Scientific, 15240112) at 37° C. with 5% CO2. Cells were grown to confluency and maintained in growing medium for 2 days, until they became competent. Competent HC11 cells were primed for differentiation by culturing them in priming medium [RPMI-1640 supplemented with 5 μg/ml insulin, 1 μM dexamethasone (Millipore-Sigma, D4902-1 G) and 1× Anti-Anti] for 24 h at 37° C. with 5% CO2. To induce differentiation, primed HC11 cells were cultured in DIP Medium [RPMI-1640, supplemented with 10% FBS, 5 μg/ml insulin, 1 μM dexamethasone, 1× anti-anti and 3 μg/ml Prolactin (NHPP, oPRL-21)] at 37° C. with 5% CO2.
[…] Drugs were maintained through the differentiation process and added with every change of media.
For DNA content analysis of the mammary gland CK8^+ epithelial population, mammary gland cells suspension was obtained as described above. Cells were fixed in ice-cold 70% EtOH at a final concentration of 10^6 cells/ml. During fixation, cells were vigorously vortexed for 1 min to avoid the formation of cell aggregates. Cells were washed twice with washing buffer [1×PBS containing 5% FBS and 0.5% tween 20 (Fisher Chemical, BP337500)] and centrifuged at 2,000 rpm for 5 min at 4° C. Cell pellet was incubated for 1 h at room temperature with anti-CK8 (Developmental Studies Hybridoma Lab, TROMA-1), anti-GFP (Thermo Fisher, A01704) or corresponding rat (Thermo-Fisher, 10700) or rabbit (Thermo-Fisher, 10500C) IgG isotype controls. Cells were washed twice and incubated for 1 h at room temperature in darkness with FITC anti-Rat (Thermo Fisher, A24544) or FITC anti-Rabbit (Thermo Fisher, A16030) and APC anti-Rat (Jackson ImmunoResearch, 712-136-153). Cells were washed twice and resuspended in propidium iodide solution [1×PBS containing 25 μg/ml of propidium iodide (Thermo Fisher, P3566) and 100 μg/ml of RNAse (Thermo Fisher, 12091021)]. For DNA content analysis on HC11, cells were washed with 1×DPBS (GIBCO, 14190-250) and harvested using 0.05% Trypsin-EDTA (GIBCO, 25300-062). Cell suspension was washed with 1×DPBS and centrifuged at 1,000 rpm for 5 min at 4° C. Cell pellet was fixed in ice-cold 70% EtOH and then vortexed vigorously to avoid cell aggregates. After fixation, cells were washed with washing buffer [1×PBS (GIBCO, 14190136) supplemented with 5% FBS] and centrifuged at 2,000 rpm for 5 min at 4° C. The pellet was resuspended in propidium iodide solution. Cell suspensions were filtered through a 70 μm cell strainer (Falcon, 08-771-2) and analyzed using a BD LSRII cytometer or a BD FACS Aria II Cell Sorter. Populations were analyzed using FlowJo.

Structure (SMILES): COc1cccc2c1C(=O)c1c(O)c3c(c(O)c1C2=O)C[C@@](O)(C(=O)CO)C[C@@H]3O[C@H]1C[C@H](N)[C@H](O)[C@H](C)O1 [doxorubicin]
- γH2AX in CK8+ luminal cells [1]: Increased
- polyploidization (FACS DNA content) ([2]; DIP3): increase in polyploidization
- proportion of tetraploid cells (FACS DNA content) ([2]; after 24 h): increases
